Here are results for 2 compounds from publication PMC10643566, “Insights into the mechanism of SARS-CoV-2 main protease autocatalytic maturation from model precursors” (Communications Biology, 2023).

Where “and” joins values, the source holds several entries; their conditions need not be identical. Identical values can stand only once.

One data set has as its system nsp4/nsp5 cleavage site. It counts as biochemical, SARS-CoV-2.
The target in data set [1] is MPro^M (E290A and R298A mutations). To be noted: read-out: GC373 binding (Kd), determined by ITC, ref [11],[13]; cited from earlier work. For orientation: ITC needs no label: the signal is the heat of the interaction.
In data set [2] the target is MPro^1–199 (catalytic domain). As to conditions: read-out: GC373 binding (Kd), determined by ITC, ref [11],[13]; cited from earlier work.
The target of the next data set is MPro^WT. To be noted: read-out: GC373 binding (Kd), determined by ITC, ref [11],[13]; cited from earlier work.

Usually Kd stands for the free concentration of one partner at which half of the binding sites on the other are occupied at equilibrium, for simple one-to-one binding.

Regarding “^(−25)MPro^1–199: precursor with 25 nsp4 residues appended to the N-terminus of catalytic domain MPro^1–199”, in the data set with nsp4/nsp5 cleavage site, the “% Conversion at 15 h” value was 32.2% and 32.4%; the “% Conversion at 24 h” value was 42.2% and 43.2%; the “Δ[P] at 24 h” value was 40.5 ± 0.4 µM and 20.7 ± 0.2 µM.

In the case of `CC(C)C[C@H](NC(=O)OCc1ccccc1)C(=O)N[C@H](C=O)C[C@@H]1CCNC1=O` [GC373], the Kd in data set [1] is 6.13 ± 0.3 µM; in data set [2], 32 ± 5 µM; on MPro^WT, 150 nM.
